The target in test [1] is T1, HNE (elastase derived from human sputum, HSE) (Homo sapiens, UniProt P08246).
T1 construct: The elastase used in the protocol was derived from human sputum (HSE); purchased Elastin Product Co., Inc, Missouri, USA SE-563; host or cells: human sputum (natural source)
T1 sequence (P08246 30-267): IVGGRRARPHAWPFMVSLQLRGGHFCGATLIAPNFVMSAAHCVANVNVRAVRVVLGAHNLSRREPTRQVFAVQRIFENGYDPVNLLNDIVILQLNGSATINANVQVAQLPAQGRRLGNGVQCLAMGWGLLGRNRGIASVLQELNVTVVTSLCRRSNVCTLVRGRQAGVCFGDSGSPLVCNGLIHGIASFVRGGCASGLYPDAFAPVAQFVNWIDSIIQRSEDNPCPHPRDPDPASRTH
The experiment in a line: In vitro inhibition of elastase (rate assay, N-methoxysuccinyl-Ala-Ala-Pro-Val-p-nitroaniline substrate). The format is biochemical. Conditions: inhibition activity against HNE; IC50 by log-logit method converted to K1 by Dixson plot; pH 8.0, 37° C.

Test [2] concerns elastase activity in whole blood. The test is described as follows: Ex vivo inhibition of elastase (whole blood stimulated with opsonized zymosan, after oral administration). The format is in vivo. Conditions: blood sampled 60 minutes after administration, 24 hour fasted animal; for Percent Inhibition at Indicated Dosage, 3 mg/kg: 3 mg/kg oral; for Percent Inhibition at Indicated Dosage, 10 mg/kg: 10 mg/kg oral; for Percent Inhibition at Indicated Dosage, 30 mg/kg: 30 mg/kg oral. As to the method: Sixty (60) minutes after the oral administration of an inhibitor with an appropriate vehicle, a blood sample (0.9 ml) is collected through the abdominal aorta by a syringe containing 0.1 ml of a 3.8% sodium citrate solution.
The blood sample is processed as follows: 60 μl of (final 0.1-1 mg/ml) a suspended solution of opsonized zymosan in Hank's buffer is added to the preincubated whole blood (540 μl) for 5 minutes at 37° C., and the resulting mixture is incubated for 30 minutes at the same temperature. The reaction is terminated by immersing the test tube into ice water. The reaction mixture is then centrifuged at 3,000 rpm for 10 minutes at 4° C. Twenty (20) μl of each of the resulting supernatant (the Sample) is measured for elastase activity.
The mixture consisting of the following components is incubated for 24 hours at 37° C., and then optical density is measured at 405 nm:
A test sample mixed with 1-methyl-2-pyrrolidone instead of the substrate is regarded as Substrate (−). A test sample mixed with saline instead of the Sample is regarded as Blank. The remaining elastase activity in the Sample is calculated according to the following: […]
optical density of Substrate (+)−(optical density of Substrate (−)+optical density of Blank)
as a total production of p-nitroaniline over 24 hours based on a standard curve for the amount of p-nitroaniline.
An average activity is calculated based on the test sample of 5-6 animals. An agent at 3, 10 or 30 mg/kg is orally given by a forced administration to a 24 hour fasted animal at 60 minutes before the blood sampling. Optical density is measured by SPECTRA MAX 250 (Molecular Devices).

In general, Ki refers to a measure of affinity in units of concentration, obtained from inhibition or displacement.

In turn, `CC(C)C(NC(=O)Cn1c(-c2ccccc2)ncc(N)c1=O)C(=O)c1nnc(C(C)(C)c2ccc3c(c2)OCO3)o1` (racemic) [Example 8, 2-[5-Amino-6-oxo-2-phenyl-1,6-dihydro-1-pyrimidinyl]-N-[1-(2-[5-(α,α-dimethyl-3,4methylenedioxybenzyl)-1,3,4-oxadiazolyl]carbonyl)-2-(R,S)-methylpropyl]acetamide] returned an inhibition constant (Ki) in test [1] of 1.06 nM.
In turn, `CC(C)C(NC(=O)Cn1c(-c2ccccc2)nccc1=O)C(=O)c1nnc(C(C)(C)c2ccc3c(c2)OCO3)o1` (racemic) [Example 9, 2-[6-Oxo-2-phenyl-1,6-dihydro-1-pyrimidinyl]-N-[1-(2-[5-(α,α-dimethyl-3,4-methylenedioxybenzyl)-1,3,4-oxadiazolyl]carbonyl)-2-(R,S)-methylpropyl]acetamide] displayed a Ki in test [1] of 0.34 nM.
Still for that read-out and setting: to `CC(C)C(NC(=O)Cn1c(-c2ccc(F)cc2)nccc1=O)C(=O)c1nnc(C(C)(C)c2ccc3c(c2)OCO3)o1` (racemic) [Example 10, 2-[6-Oxo-2-(4-fluorophenyl)-1,6-dihydro-1-pyrimidinyl]-N-[1-(2-[5-(α,α-dimethyl-3,4-methylenedioxybenzyl)-1,3,4-oxadiazolyl]carbonyl)-2-(R,S)-methylpropyl]acetamide] belongs 1.53 nM; to `CC(C)C(NC(=O)Cn1c(-c2ccc(F)cc2)nccc1=O)C(=O)c1nnc(C(C)(C)c2ccccc2)o1` (racemic) [Example 11, 2-[6-Oxo-2-(4-fluorophenyl)-1,6-dihydro-1-pyrimidinyl]-N-[1-(2-[5-(α,α-dimethylbenzyl)-1,3,4-oxadiazolyl]carbonyl)-2-(R,S)-methylpropyl]acetamide], 5.34 nM; to `CC(C)C(NC(=O)Cn1c(-c2ccccc2)nccc1=O)C(=O)c1nnc(C(C)(C)c2ccccc2)o1` (racemic) [Example 12, 2-[6-Oxo-2-phenyl-1,6-dihydro-1-pyrimidinyl]-N-[1-(2-[5-(α,α-dimethylbenzyl)-1,3,4-oxadiazolyl]carbonyl)-2-(R,S)-methylpropyl]acetamide], 1.83 nM.
In test [1], `COC(=O)NC(C(=O)N1CCCC1C(=O)NC(C(=O)c1nnc(C(C)(C)C)o1)C(C)C)C(C)C` [Example 1, Methyloxycarbonyl-L-valyl-N-[1-(2-[5-(tert-butyl)oxadiazolyl]carbonyl)-2-(S)-methylpropyl]-L-prolinamide] had a Ki of 3 nM.
`COC(=O)NC(C(=O)N1CCCC1C(=O)NC(C(=O)c1nnc(C(C)(C)c2ccccc2)o1)C(C)C)C(C)C` [Example 2, Methyloxycarbonyl-L-valyl-N-[1-(2-[5-(α,α-dimethylbenzyl)oxadiazolyl]carbonyl)-2-(S)-methylpropyl]-L-prolinamide] showed a Ki in test [1] of 1.32 nM. In test [2], the “Percent Inhibition at Indicated Dosage, 3 mg/kg” value turned out to be 7%; the “Percent Inhibition at Indicated Dosage, 10 mg/kg” value was 9%; the “Percent Inhibition at Indicated Dosage, 30 mg/kg” value was determined as 62%.
The like results for `COC(=O)NC(C(=O)N1CCCC1C(=O)NC(C(=O)c1nnc(C(C)(C)c2ccc3c(c2)OCO3)o1)C(C)C)C(C)C` [Example 3, Methyloxycarbonyl-L-valyl-N-[1-(2-[5-(α,α-dimethyl-3,4-methylenedioxybenzyl)-1,3,4-oxadiazolyl]carbonyl)-2-(S)-methylpropyl]-L-prolinamide] were, in that order, 0.24 nM, 44%, 69% and 99%.

The values above are taken from US6548638B2, “Peptoid and nonpeptoid containing α-keto oxadiazoles as serine protease inhibitors” (Cortech, Inc., priority 1998, dated 2003).
